pKi: −log10 of the molar value. Structures can show the parent of a compound that is named as a salt. Where two headings read alike, the source gives them in different places. Bounds are passed on as bounds.

Among the data in patent US9738655B2, “Tetrahydroisoquinolines containing substituted azoles as factor XIa inhibitors” (BRISTOL-MYERS SQUIBB COMPANY, priority 2013, dated 2017) are Ki values, retold here.

Assay [1] deals with purified human Factor XIa (Homo sapiens (Human), UniProt P03951). The assay can be described thus: Factor XIa enzyme inhibition assay (chromogenic substrate S-2366).
The target in assay [2] is purified human plasma kallikrein (Homo sapiens (Human), UniProt P03952). Description: Plasma kallikrein enzyme inhibition assay (chromogenic substrate S-2302). Format: biochemical.
Setting [3] is: read-out: Factor XIa Ki, measured at 25° C.
The mark [4] stands for this setting: measured at 25° C. (no asterisk).

Sequence of purified human Factor XIa (P03951 388-625): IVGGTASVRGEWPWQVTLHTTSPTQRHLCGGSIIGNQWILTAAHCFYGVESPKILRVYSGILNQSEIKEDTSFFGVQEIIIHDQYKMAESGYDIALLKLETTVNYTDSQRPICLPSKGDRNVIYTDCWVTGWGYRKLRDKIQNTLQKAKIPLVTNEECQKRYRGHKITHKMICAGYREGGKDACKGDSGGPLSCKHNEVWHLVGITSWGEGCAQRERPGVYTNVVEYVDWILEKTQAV
Sequence of purified human Factor XIa (P03951 19-387 partner): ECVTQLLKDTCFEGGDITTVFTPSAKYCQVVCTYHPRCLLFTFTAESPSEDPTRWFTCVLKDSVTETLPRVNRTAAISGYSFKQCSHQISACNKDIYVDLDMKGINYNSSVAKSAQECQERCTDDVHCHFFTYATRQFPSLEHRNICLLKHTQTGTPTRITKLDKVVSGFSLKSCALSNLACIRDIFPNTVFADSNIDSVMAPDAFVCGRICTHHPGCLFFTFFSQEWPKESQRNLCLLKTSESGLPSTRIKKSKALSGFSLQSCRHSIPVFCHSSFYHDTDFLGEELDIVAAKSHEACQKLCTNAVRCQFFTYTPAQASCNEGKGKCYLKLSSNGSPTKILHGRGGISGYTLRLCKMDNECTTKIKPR
Sequence of purified human plasma kallikrein (P03952 391-638): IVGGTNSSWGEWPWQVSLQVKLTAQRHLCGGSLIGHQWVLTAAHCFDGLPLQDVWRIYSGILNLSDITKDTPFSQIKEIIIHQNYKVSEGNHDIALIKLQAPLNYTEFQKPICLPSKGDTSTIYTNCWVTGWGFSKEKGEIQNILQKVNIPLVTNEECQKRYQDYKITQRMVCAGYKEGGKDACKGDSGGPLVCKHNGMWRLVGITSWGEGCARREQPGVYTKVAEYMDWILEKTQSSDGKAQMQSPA
Sequence of purified human plasma kallikrein (P03952 20-390 partner): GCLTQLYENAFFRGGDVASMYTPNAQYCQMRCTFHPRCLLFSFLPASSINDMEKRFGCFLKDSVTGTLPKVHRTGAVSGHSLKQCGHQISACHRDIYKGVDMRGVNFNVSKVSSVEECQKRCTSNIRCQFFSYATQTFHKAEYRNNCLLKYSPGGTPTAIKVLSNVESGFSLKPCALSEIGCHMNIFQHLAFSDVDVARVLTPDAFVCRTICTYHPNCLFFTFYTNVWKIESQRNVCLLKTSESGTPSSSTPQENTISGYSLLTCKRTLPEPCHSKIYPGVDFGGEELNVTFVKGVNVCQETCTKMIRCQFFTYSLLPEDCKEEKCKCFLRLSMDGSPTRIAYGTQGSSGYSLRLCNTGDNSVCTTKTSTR

With `CN(C)C1CCN(c2cccc3c2CCN(C(=O)c2cn(-c4cccc(Cl)c4F)nn2)[C@@H]3C(=O)Nc2ccc(-c3cn[nH]c3)cc2)CC1` [Example 104, (S)-N-(4-(1H-Pyrazol-4-yl)phenyl)-2-(1-(3-chloro-2-fluorophenyl)-1H-1,2,3-triazole-4-carbonyl)-5-(4-(dimethylamino)piperidin-1-yl)-1,2,3,4-tetrahydroisoquinoline-1-carboxamide, bis-TFA salt], the figures for the pKi in assay [1] (setting [3]) and in assay [2] (setting [4]) were greater than 8.30 and 9.02, respectively.
Regarding `O=C(Nc1ccc2cnccc2c1)C1c2cccc(-c3cncnc3)c2CCN1C(=O)c1cn(-c2cccc(Cl)c2F)nn1` (stereo not drawn) [Example 130, 2-(1-(3-chloro-2-fluorophenyl)-1H-1,2,3-triazol-4-carbonyl)-N-(isoquinolin-6-yl)-5-(pyrimidin-5-yl)-1,2,3,4-tetrahydroisoquinoline-1-carboxamide, TFA salt], the pKi in assay [1] (setting [3]) was 7.55; in assay [2] (measured at 37° C. (*)) it was 6.90.
`O=C(O)c1ccc(NC(=O)C2c3cccc(-c4cnc(O)nc4)c3CCN2C(=O)c2cn(-c3cccc(Cl)c3F)nn2)cc1` (stereo not drawn) [Example 34, 4-(2-(1-(3-chloro-2-fluorophenyl)-1H-1,2,3-triazole-4-carbonyl)-5-(2-hydroxypyrimidin-5-yl)-1,2,3,4-tetrahydroisoquinoline-1-carboxamido)benzoic acid]: the pKi is greater than 8.30 in assay [1] and 9.34 in assay [2] (setting [4]).
With `CN(C)C1CCN(c2cccc3c2CCN(C(=O)c2cnn(-c4cccc(Cl)c4F)c2)C3C(=O)Nc2ccc(OC(F)F)cc2)CC1` (stereo not drawn) [Example 96, 2-(1-(3-chloro-2-fluorophenyl)-1H-pyrazole-4-carbonyl)-N-(4-(difluoromethoxy)phenyl)-5-(4-(dimethylamino)piperidin-1-yl)-1,2,3,4-tetrahydroisoquinoline-1-carboxamide, TFA salt], the pKi in assay [1] (setting [3]) was 7.69; in assay [2] (setting [4]), 7.47.
For `COC1CCN(c2cccc3c2CCN(C(=O)c2cn(-c4cccc(Cl)c4F)nn2)C3C(=O)Nc2ccc3c(c2)CC(=O)N3)CC1` (stereo not drawn) [Example 190, 2-(1-(3-Chloro-2-fluorophenyl)-1H-1,2,3-triazole-4-carbonyl)-5-(4-methoxypiperidin-1-yl)-N-(2-oxoindolin-5-yl)-1,2,3,4-tetrahydroisoquinoline-1-carboxamide, TFA salt], the pKi in assay [1] (setting [3]) is 7.01; in assay [2] (setting [4]), 6.79.
In the same order, the values of `O=C(O)c1ccc(NC(=O)C2c3cccc(N4CCOCC4=O)c3CCN2C(=O)c2cn(-c3cccc(Cl)c3F)nn2)cc1` (stereo not drawn) [Example 69, 4-(2-(1-(3-chloro-2-fluorophenyl)-1H-1,2,3-triazole-4-carbonyl)-5-(3-oxomorpholino)-1,2,3,4-tetrahydroisoquinoline-1-carboxamido)benzoic acid] are greater than 8.30 and 8.00.
Turning to `COc1cccc2c1CCN(C(=O)c1cn(-c3cccc(Cl)c3F)nn1)C2C(=O)Nc1ccc(C(=O)O)cc1` (racemic) [Example 275, 4-(2-(1-(3-chloro-2-fluoroplienyl)-1H-1,2,3-triazole-4-carbonyl)-5-methoxy-1,2,3,4-tetrahydroisoquinoline-1-carboxamido)benzoic acid, TFA salt], the pKi in assay [1] is 7.97; in assay [2] (setting [4]), 7.93.
For the molecule `O=C(Nc1ccc(-c2ncc[nH]2)cc1)C1c2cccc(-c3cncnc3)c2CCN1C(=O)c1cn(-c2cccc(Cl)c2F)cn1` (stereo not drawn) [Example 137, N-(4-(1H-Imidazol-2-yl)phenyl)-2-(1-(3-chloro-2-fluorophenyl)-1H-imidazole-4-carbonyl)-5-(pyrimidin-5-yl)-1,2,3,4-tetrahydroisoquinoline-1-carboxamide, 2 TFA], the pKi in assay [1] (setting [3]) was greater than 8.30; in assay [2] (measured at 37° C. (*)) it was 7.27.
As for `COC1CCN(c2cccc3c2CCN(C(=O)c2cn(-c4cccc(Cl)c4F)nn2)C3C(=O)Nc2ccc(C(=O)O)cc2)CC1` (stereo not drawn) [Example 215, 4-(2-(1-(3-chloro-2-fluorophenyl)-1H-1,2,3-triazole-4-carbonyl)-5-(4-methoxypiperidin-1-yl)-1,2,3,4-tetrahydroisoquinoline-1-carboxamido)benzoic acid, TFA salt], the pKi in assay [1] (setting [3]) is greater than 8.30; in assay [2] (setting [4]), 7.69.
In the same order, the values of `CN1CCC2(CCN(c3cccc4c3CCN(C(=O)c3cnn(-c5cccc(Cl)c5F)c3)C4C(=O)Nc3ccc(C(=O)O)cc3)CC2)C1=O` (stereo not drawn) [Example 107, 4-(2-(1-(3-Chloro-2-fluorophenyl)-1H-pyrazole-4-carbonyl)-5-(2-methyl-1-oxo-2,8-diazaspiro[4.5]decan-8-yl)-1,2,3,4-tetrahydroisoquinoline-1-carboxamido)benzoic acid, TFA salt] are greater than 8.30 and 7.90.
In the case of `O=C(Nc1ccc(-c2cc[nH]n2)cc1)C1c2cccc(-c3cncnc3)c2CCN1C(=O)c1cn(-c2cccc(Cl)c2F)nn1` (stereo not drawn) [Example 127, N-(4-(1H-pyrazol-3-yl)phenyl)-2-(1-(3-chloro-2-fluorophenyl)-1H-1,2,3-triazole-4-carbonyl)-5-(pyrimidin-5-yl)-1,2,3,4-tetrahydroisoquinoline-1-carboxamide, TFA salt], the pKi in assay [1] (setting [3]) was greater than 8.30; in assay [2] (measured at 37° C. (*)), 6.71.
In the same order, the values of `Cn1ncnc1-c1cccc2c1CCN(C(=O)c1cn(-c3cccc(Cl)c3F)nn1)C2C(=O)Nc1ccc(C(=O)O)cc1` (stereo not drawn) [Example 245, 4-(2-(1-(3-Chloro-2-fluorophenyl)-1H-1,2,3-triazole-4-carbonyl)-5-(1-methyl-1H-1,2,4-triazol-5-yl)-1,2,3,4-tetrahydroisoquinoline-1-carboxamido)benzoic acid, TFA salt] are greater than 8.30 and 7.17.
As for `CN1CCN(c2cccc3c2CCN(C(=O)c2cnn(-c4cccc(Cl)c4)c2)C3C(=O)Nc2ccc(C(=O)O)cc2)CC1` (stereo not drawn) [Example 200, 4-(2-(1-(3-chlorophenyl)-1H-pyrazole-4-carbonyl)-5-(4-methylpiperazin-1-yl)-1,2,3,4-tetrahydroisoquinoline-1-carboxamido)benzoic acid, 2 TFA salt], the results for the pKi in assay [1] (setting [3]) and in assay [2] (setting [4]) were 7.38 and 7.97, respectively.
In the same order, the values of `CN1CCN(c2cccc3c2CCN(C(=O)C2CC(c4c(F)ccc(Cl)c4F)=NO2)C3C(=O)Nc2ccc(C(=O)O)cc2)CC1` (stereo not drawn) [Example 205, 4-(2-(3-(3-chloro-2,6-difluorophenyl)-4,5-dihydroisoxazole-5-carbonyl)-5-(4-methylpiperazin-1-yl)-1,2,3,4-tetrahydroisoquinoline-1-carboxamido)benzoic acid, 2 TFA salt] are greater than 8.30 and 9.19.
As for `CN1CCN(c2cccc3c2CCN(C(=O)c2cn(-c4cccc(Cl)c4F)nn2)C3C(=O)Nc2ccc(C(=O)O)cc2)CC1=O` (racemic) [Example 274, 4-(2-(1-(3-chloro-2-fluorophenyl)-1H-1,2,3-triazole-4-carbonyl)-5-(4-methyl-3-oxopiperazin-1-yl)-1,2,3,4-tetrahydroisoquinoline-1-carboxamido)benzoic acid, TFA salt], the pKi in assay [1] was greater than 8.30; in assay [2] (setting [4]), 8.31.
